Earlier results, collected in US20060246141A1, “Nanoparticulate lipase inhibitor formulations” (Elan Pharma International, Limited, priority 2005, published 2006).
Where two headings read alike, the source gives them in different places.

Legend:
[1] = system: gastric and pancreatic lipases; settings: recommended therapeutic dose of 120 mg three times a day
[2] = physiological pH range

Solubility (in chloroform): freely soluble
Solubility (in methanol and ethanol): very soluble
Solubility (in water): practically insoluble
pKa [2]: no pKa within the physiological pH range
SMILES: CCCCCCCCCCCC(CC1OC(=O)[C@H]1CCCCCC)OC(=O)C(CC(C)C)NC=O (stereo in doubt) [Orlistat, (S)-2-formylamino-4-methyl-pentanoic acid (S)-1-[[(2S, 3S)-3-hexyl-4-oxo-2-oxetanyl]methyl]-dodecyl ester]
Inhibition of dietary fat absorption [1]: approximately 30%
